Experimental data from the supplement of paper PMC11451515.

Key:
Conditions in all cases: 48 h
P12-Ichikawa [1] = experiment: cell viability relative to DMSO control; higher = less cytotoxic
Outline: (§1)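 NOMO1, SEM and P12-Ichikawa leukemia cells spent at least four passages adapting to each medium before use. They were seeded at 500 cells/well (NOMO1, SEM) or 1000 cells/well (P12-Ichikawa) in 5 μl in 1536-well plates and pin-dosed with library compounds in DMSO at 11 threefold steps from 47 μM down to 0.79 nM. After 48 h at 37°C, CellTiter-Glo One luminescence was read. Viability is reported as a percentage of the DMSO wells on each plate, with cell-free wells as background.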

NOMO1 [2] = experiment: as above
Outline: as §1

SEM cells [3] = experiment: as above
Outline: as §1

P12-Ichikawa [4] = experiment: AUC of viability dose-response curve (% viability x log10 dose units); higher = less sensitive
Outline: (§2)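 Leukemia cells adapted to each medium were seeded in 1536-well plates (500 or 1000 cells/well) and given library compounds in DMSO for 48 h at 37°C. The 11 threefold doses spanned 47 μM to 0.79 nM, and CellTiter-Glo One luminescence was normalised per plate to DMSO and cell-free wells before four-parameter log-logistic fitting on log10 dose. Area under the curve was integrated with the trapezoidal rule, scaling curves above full viability and removing curves that failed quality control.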

NOMO1 [5] = experiment: as above
Outline: as §2

SEM cells [6] = experiment: as above
Outline: as §2

CCOc1cc2ncc(C#N)c(Nc3ccc(F)c(Cl)c3)c2cc1NC(=O)/C=C/CN(C)C
cell viability [%]
Conditions	NOMO1 [2]	P12-Ichikawa [1]	SEM cells [3]
HPLM + 10% dialyzed FBS, 0.000781 µM	120	118	88.3
HPLM + 10% dialyzed FBS, 0.00234 µM	133	116	118
HPLM + 10% dialyzed FBS, 0.00702 µM	111	131	120
HPLM + 10% dialyzed FBS, 0.0211 µM	114	122	123
HPLM + 10% dialyzed FBS, 0.0632 µM	127	116	118
HPLM + 10% dialyzed FBS, 0.19 µM	84.9	71.7	73.1
HPLM + 10% dialyzed FBS, 0.569 µM	80.9	80.9	71
HPLM + 10% dialyzed FBS, 1.71 µM	57	61.1	55.6
HPLM + 10% dialyzed FBS, 5.12 µM	50.8	41.6	37.4
HPLM + 10% dialyzed FBS, 15.4 µM	42.7	21.1	20.1
HPLM + 10% dialyzed FBS, 46.1 µM	4.8	2.69	4.15
RPMI 5 mM glucose + 10% FBS, 0.000781 µM	118	121	75.1
RPMI 5 mM glucose + 10% FBS, 0.00234 µM	128	120	110
RPMI 5 mM glucose + 10% FBS, 0.00702 µM	116	123	108
RPMI 5 mM glucose + 10% FBS, 0.0211 µM	124	128	114
RPMI 5 mM glucose + 10% FBS, 0.0632 µM	123	121	116
RPMI 5 mM glucose + 10% FBS, 0.19 µM	118	95.2	58.9
RPMI 5 mM glucose + 10% FBS, 0.569 µM	102	85.3	52.1
RPMI 5 mM glucose + 10% FBS, 1.71 µM	85.6	71.9	40.2
RPMI 5 mM glucose + 10% FBS, 5.12 µM	66.2	57.6	24.5
RPMI 5 mM glucose + 10% FBS, 15.4 µM	76.3	26.3	11.5
RPMI 5 mM glucose + 10% FBS, 46.1 µM	10.4	5.42	3.17
RPMI 5 mM glucose + 10% dialyzed FBS, 0.000781 µM	–	–	79.9
RPMI 5 mM glucose + 10% dialyzed FBS, 0.00234 µM	–	–	115
RPMI 5 mM glucose + 10% dialyzed FBS, 0.00702 µM	–	–	131
RPMI 5 mM glucose + 10% dialyzed FBS, 0.0211 µM	–	–	120
RPMI 5 mM glucose + 10% dialyzed FBS, 0.0632 µM	–	–	126
RPMI 5 mM glucose + 10% dialyzed FBS, 0.19 µM	–	–	66.2
RPMI 5 mM glucose + 10% dialyzed FBS, 0.569 µM	–	–	67.3
RPMI 5 mM glucose + 10% dialyzed FBS, 1.71 µM	–	–	52
RPMI 5 mM glucose + 10% dialyzed FBS, 5.12 µM	–	–	29.9
RPMI 5 mM glucose + 10% dialyzed FBS, 15.4 µM	–	–	11.7
RPMI 5 mM glucose + 10% dialyzed FBS, 46.1 µM	–	–	3.53

AUC of viability dose-response curve
Conditions	NOMO1 [5]	P12-Ichikawa [4]	SEM cells [6]
HPLM + 10% dialyzed FBS	323	312	321
RPMI 5 mM glucose + 10% FBS	385	338	300
RPMI 5 mM glucose + 10% dialyzed FBS	353	320	312
